Like-named read-outs stand apart in the source and are kept apart here. One block for each molecule: values may come before it.
Legend:
Assay in all cases: TGFα-shedding assay-based GPCR screening with chimeric Gα subunit proteins
Type in all cases: cell-based
348 GPCRs [1] = target: T1, 348 GPCRs (Homo sapiens, UniProt Q8N6U8); conditions: 10µM, Favipiravir 100μM
T1 construct: expressed in transfected cells; host or cells: HEK293A

348 GPCRs [2] = target: T2, 348 GPCRs (Homo sapiens, UniProt O95800); conditions: 10µM, Favipiravir 100μM
T2 construct: expressed in transfected cells; host or cells: HEK293A

348 GPCRs [3] = target: T3, 348 GPCRs (Homo sapiens, UniProt P35414); conditions: 10µM, Favipiravir 100μM
T3 sequence (P35414 1-380): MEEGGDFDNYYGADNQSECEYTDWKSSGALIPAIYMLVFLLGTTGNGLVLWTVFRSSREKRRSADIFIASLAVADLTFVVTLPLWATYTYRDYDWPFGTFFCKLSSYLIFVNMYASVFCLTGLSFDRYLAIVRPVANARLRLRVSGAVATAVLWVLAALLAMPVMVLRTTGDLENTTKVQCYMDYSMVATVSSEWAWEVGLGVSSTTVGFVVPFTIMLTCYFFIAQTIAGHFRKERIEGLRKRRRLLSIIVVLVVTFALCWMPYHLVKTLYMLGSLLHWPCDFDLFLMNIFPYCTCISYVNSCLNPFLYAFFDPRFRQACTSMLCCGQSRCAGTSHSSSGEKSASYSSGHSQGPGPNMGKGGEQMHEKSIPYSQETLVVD

348 GPCRs [4] = target: T4, 348 GPCRs (Homo sapiens, UniProt P51810); conditions: 10µM, Favipiravir 100μM
T4 construct: expressed in transfected cells; host or cells: HEK293A

348 GPCRs [5] = target: T5, 348 GPCRs (Homo sapiens, UniProt Q9NYW4); conditions: 10µM, Favipiravir 100μM
T5 construct: expressed in transfected cells; host or cells: HEK293A
T5 sequence (Q9NYW4 1-299): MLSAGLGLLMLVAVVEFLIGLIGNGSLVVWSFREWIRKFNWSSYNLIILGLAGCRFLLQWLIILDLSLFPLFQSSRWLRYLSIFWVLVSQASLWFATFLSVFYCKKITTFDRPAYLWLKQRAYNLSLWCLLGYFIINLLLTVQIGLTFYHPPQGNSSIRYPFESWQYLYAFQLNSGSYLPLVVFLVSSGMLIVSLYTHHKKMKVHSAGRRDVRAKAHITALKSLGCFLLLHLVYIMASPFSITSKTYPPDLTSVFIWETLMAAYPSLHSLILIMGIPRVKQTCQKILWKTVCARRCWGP

348 GPCRs [6] = target: T6, 348 GPCRs (Homo sapiens, UniProt Q14330); conditions: GPR18 (G protein-coupled receptor 18); 10µM, Favipiravir 100μM
T6 construct: expressed in transfected cells; host or cells: HEK293A
T6 sequence (Q14330 1-331): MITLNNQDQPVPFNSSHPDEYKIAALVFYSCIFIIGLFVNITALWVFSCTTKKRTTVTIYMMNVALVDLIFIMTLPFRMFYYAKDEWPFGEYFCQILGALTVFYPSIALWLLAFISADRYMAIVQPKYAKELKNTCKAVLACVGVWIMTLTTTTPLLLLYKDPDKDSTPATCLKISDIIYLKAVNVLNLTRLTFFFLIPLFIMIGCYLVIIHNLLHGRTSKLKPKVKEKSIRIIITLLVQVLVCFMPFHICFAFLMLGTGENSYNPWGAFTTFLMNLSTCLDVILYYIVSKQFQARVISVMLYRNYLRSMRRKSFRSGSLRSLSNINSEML

348 GPCRs [7] = target: T7, 348 GPCRs (Homo sapiens, UniProt Q96RI0); conditions: 10µM, Favipiravir 100μM
T7 construct: expressed in transfected cells; host or cells: HEK293A
T7 sequence (Q96RI0 18-385): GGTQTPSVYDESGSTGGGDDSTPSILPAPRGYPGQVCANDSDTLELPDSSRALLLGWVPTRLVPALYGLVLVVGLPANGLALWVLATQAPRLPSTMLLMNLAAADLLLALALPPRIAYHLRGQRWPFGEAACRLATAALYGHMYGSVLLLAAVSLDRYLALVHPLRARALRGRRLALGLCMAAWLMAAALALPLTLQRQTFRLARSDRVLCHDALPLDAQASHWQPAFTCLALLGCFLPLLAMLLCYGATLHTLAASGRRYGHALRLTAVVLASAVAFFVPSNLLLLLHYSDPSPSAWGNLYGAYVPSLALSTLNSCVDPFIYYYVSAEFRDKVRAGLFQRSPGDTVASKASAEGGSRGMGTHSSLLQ

348 GPCRs [8] = target: T8, 348 GPCRs (Homo sapiens, UniProt P08172)
T8 sequence (P08172 1-466): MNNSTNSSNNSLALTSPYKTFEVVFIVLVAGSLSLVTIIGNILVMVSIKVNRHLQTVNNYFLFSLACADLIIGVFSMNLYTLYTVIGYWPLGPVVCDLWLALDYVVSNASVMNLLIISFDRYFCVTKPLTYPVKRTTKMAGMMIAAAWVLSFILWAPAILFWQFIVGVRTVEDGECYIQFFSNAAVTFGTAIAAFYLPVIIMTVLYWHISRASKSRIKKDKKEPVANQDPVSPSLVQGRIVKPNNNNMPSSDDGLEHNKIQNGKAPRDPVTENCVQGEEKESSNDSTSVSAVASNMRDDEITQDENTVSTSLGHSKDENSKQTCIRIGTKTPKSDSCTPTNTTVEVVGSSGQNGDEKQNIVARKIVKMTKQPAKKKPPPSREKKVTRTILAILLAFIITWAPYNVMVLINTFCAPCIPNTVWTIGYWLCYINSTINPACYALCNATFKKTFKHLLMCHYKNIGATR

[9] = read-out: % GPCR activation compared to TPA, GPR161 (G protein-coupled receptor 161)
[10] = read-out: % GPCR activation compared to TPA, GPR75 (G protein-coupled receptor 75)
[11] = read-out: % GPCR activation compared to TPA, APLNR (apelin receptor)
[12] = read-out: % GPCR activation compared to TPA, GPR143 (G Protein-Coupled Receptor 143)
[13] = read-out: % GPCR activation compared to TPA, TAS2R5 (taste receptor, type 2, member 5)
[14] = read-out: % GPCR activation compared to TPA, F2RL3 (coagulation factor II (thrombin) receptor-like 3)
[15] = read-out: % GPCR activation compared to TPA, GPCR M2 (Muscarinic acetylcholine receptor M2)
[16] = GPR161 (G protein-coupled receptor 161), read-out: % GPCR activation compared to TPA
[17] = GPR75 (G protein-coupled receptor 75), read-out: % GPCR activation compared to TPA
[18] = APLNR (apelin receptor), read-out: % GPCR activation compared to TPA
[19] = GPR143 (G Protein-Coupled Receptor 143), read-out: % GPCR activation compared to TPA
[20] = TAS2R5 (taste receptor, type 2, member 5), read-out: % GPCR activation compared to TPA
[21] = F2RL3 (coagulation factor II (thrombin) receptor-like 3), read-out: % GPCR activation compared to TPA
[22] = GPCR M2 (Muscarinic acetylcholine receptor M2), read-out: % GPCR activation compared to TPA

T2 sequence (O95800 whole entry): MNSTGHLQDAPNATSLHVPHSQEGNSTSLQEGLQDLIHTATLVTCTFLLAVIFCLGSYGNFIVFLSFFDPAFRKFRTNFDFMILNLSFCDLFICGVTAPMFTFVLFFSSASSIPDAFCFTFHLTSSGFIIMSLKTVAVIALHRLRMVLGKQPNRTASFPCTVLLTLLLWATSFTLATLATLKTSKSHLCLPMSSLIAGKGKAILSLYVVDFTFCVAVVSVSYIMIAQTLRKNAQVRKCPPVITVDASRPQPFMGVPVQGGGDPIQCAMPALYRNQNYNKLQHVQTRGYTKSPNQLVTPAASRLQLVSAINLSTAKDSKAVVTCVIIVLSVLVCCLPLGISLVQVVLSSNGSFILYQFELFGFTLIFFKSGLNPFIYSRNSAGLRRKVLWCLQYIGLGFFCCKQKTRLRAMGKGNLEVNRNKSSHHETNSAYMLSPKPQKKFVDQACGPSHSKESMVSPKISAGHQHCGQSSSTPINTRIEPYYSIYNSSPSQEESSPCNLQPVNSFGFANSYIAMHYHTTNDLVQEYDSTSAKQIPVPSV
T4 sequence (P51810 whole entry): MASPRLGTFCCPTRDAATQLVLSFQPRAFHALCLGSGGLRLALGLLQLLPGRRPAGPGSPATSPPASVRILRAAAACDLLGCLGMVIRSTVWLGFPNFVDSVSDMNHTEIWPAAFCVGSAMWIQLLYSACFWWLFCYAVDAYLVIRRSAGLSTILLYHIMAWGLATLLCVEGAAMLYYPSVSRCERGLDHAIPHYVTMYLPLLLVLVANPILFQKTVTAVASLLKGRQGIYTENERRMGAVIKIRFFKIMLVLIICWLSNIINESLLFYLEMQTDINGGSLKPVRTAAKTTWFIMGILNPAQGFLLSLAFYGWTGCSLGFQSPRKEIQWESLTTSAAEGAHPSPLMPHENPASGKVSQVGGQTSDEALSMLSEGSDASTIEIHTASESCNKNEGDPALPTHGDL
T1 sequence (Q8N6U8 whole entry): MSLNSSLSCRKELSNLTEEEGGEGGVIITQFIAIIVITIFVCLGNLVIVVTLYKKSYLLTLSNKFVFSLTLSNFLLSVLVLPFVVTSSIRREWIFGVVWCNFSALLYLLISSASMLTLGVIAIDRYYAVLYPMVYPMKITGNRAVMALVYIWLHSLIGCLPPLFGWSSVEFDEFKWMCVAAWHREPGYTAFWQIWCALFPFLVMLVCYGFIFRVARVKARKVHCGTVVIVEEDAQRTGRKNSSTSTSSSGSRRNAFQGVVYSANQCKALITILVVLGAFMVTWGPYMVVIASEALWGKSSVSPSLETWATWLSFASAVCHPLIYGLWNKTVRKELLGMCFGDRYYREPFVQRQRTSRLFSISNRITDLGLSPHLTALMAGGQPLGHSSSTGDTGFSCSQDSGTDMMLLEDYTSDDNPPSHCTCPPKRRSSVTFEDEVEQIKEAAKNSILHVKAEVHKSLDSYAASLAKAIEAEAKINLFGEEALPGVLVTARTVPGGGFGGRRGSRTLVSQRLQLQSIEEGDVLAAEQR

Compound: CC(C)OC(=O)[C@H](C)N[P@](=O)(OC[C@H]1O[C@@H](n2ccc(=O)[nH]c2=O)[C@](C)(F)[C@@H]1O)Oc1ccccc1 [sofosbuvir]
- activation at 10 µM (348 GPCRs [1]; [9]): -5.59%
- activation at 10 µM (348 GPCRs [2]; [10]): -12.7%
- activation at 10 µM (348 GPCRs [3]; [11]): -5.57%
- activation at 100 µM (348 GPCRs [4]; [12]): -1.1%
- activation at 100 µM (348 GPCRs [5]; [13]): -1.2%
- % GPCR activation compared to TPA (348 GPCRs [6]): -3.042%
- activation at 10 µM (348 GPCRs [7]; [14]): 1.49%
- activation at 10 µM (348 GPCRs [8]; [15]): 1.35%

Compound: CCC(CC)COC(=O)[C@H](C)N[P@](=O)(OC[C@H]1O[C@@](C#N)(c2ccc3c(N)ncnn23)[C@H](O)[C@@H]1O)Oc1ccccc1 [remdesivir]
- activation at 10 µM (348 GPCRs [1]; [9]): -2.6%
- activation at 10 µM (348 GPCRs [2]; [10]): 4.18%
- activation at 10 µM (348 GPCRs [3]; [11]): 3.68%
- activation at 100 µM (348 GPCRs [4]; [12]): -0.638%
- activation at 100 µM (348 GPCRs [5]; [13]): 3.92%
- % GPCR activation compared to TPA (348 GPCRs [6]): 1.118%
- activation at 10 µM (348 GPCRs [7]; [14]): -0.777%
- activation at 10 µM (348 GPCRs [8]; [15]): 6%

Other lines, results leading:

- activation at 10 µM (348 GPCRs [1]; [16]): -3.46%
- activation at 10 µM (348 GPCRs [2]; [17]): -9.47%
- activation at 10 µM (348 GPCRs [3]; [18]): -5.92%
- activation at 100 µM (348 GPCRs [4]; [19]): -2.51%
- activation at 100 µM (348 GPCRs [5]; [20]): -0.247%
- % GPCR activation compared to TPA (348 GPCRs [6]): -5.385%
- activation at 10 µM (348 GPCRs [7]; [21]): 2.35%
- activation at 10 µM (348 GPCRs [8]; [22]): 0.695%
Compound: CC(C)C(=O)OC[C@H]1O[C@@H](n2ccc(NO)nc2=O)[C@H](O)[C@@H]1O [molnupiravir]

- activation at 10 µM (348 GPCRs [1]; [16]): -0.46%
- activation at 10 µM (348 GPCRs [2]; [17]): 6.14%
- activation at 10 µM (348 GPCRs [3]; [18]): -2.25%
- activation at 100 µM (348 GPCRs [4]; [19]): -1.86%
- activation at 100 µM (348 GPCRs [5]; [20]): 2.49%
- % GPCR activation compared to TPA (348 GPCRs [6]): -1%
- activation at 10 µM (348 GPCRs [7]; [21]): -2.75%
- activation at 100 µM (348 GPCRs [8]; GPCR M2 (Muscarinic acetylcholine receptor M2), 100μM, read-out: % GPCR activation compared to TPA): 2.32%
Compound: NC(=O)c1nc(F)cnc1O [favipiravir, 6-fluoro-3-hydroxy-2-pyrazinecarboxamide]

- activation at 10 µM (348 GPCRs [1]; [16]): -1.6%
- activation at 10 µM (348 GPCRs [2]; [17]): 2.27%
- activation at 10 µM (348 GPCRs [3]; [18]): -3.07%
- activation at 100 µM (348 GPCRs [4]; [19]): -1.65%
- activation at 100 µM (348 GPCRs [5]; [20]): 0.212%
- % GPCR activation compared to TPA (348 GPCRs [6]): 2.081%
- activation at 10 µM (348 GPCRs [7]; [21]): 0.403%
- activation at 10 µM (348 GPCRs [8]; [22]): 4.87%
Compound: N#C[C@@]1(c2ccc3c(N)ncnn23)O[C@H](CO)[C@@H](O)[C@H]1O [GS441524]
